The values below are quoted from earlier work in patent publication US7772228B2, “Method for treatment of bacterial infections with once or twice-weekly administered rifalazil” (priority 1998, dated 2010).

The data set relates to M. tuberculosis. The note with it: depending on the degree of resistance to rifampin; cited from earlier work.

As for `CO[C@H]1/C=C/O[C@@]2(C)Oc3c(C)c(O)c4c(O)c(c(/C=N/N5CCN(C)CC5)c(O)c4c3C2=O)NC(=O)/C(C)=C\C=C\[C@H](C)[C@H](O)[C@@H](C)[C@@H](O)[C@@H](C)[C@H](OC(C)=O)[C@@H]1C` [Rifampin, rifampin, reference compound], the “MICs for MTB, range” value was under 0.002 to 4.0 µg/mL.
